Molecules are shown by their SMILES.

The target of experiment [1] is T1, CT775 (LpaT), lysophospholipid acyltransferase (Chlamydia trachomatis, UniProt O84780).
T1 construct: gene CT_775; expressed in E. coli BL21(DE3), membrane fraction (microsomes); cloning reported previously
T1 sequence (O84780 1-253): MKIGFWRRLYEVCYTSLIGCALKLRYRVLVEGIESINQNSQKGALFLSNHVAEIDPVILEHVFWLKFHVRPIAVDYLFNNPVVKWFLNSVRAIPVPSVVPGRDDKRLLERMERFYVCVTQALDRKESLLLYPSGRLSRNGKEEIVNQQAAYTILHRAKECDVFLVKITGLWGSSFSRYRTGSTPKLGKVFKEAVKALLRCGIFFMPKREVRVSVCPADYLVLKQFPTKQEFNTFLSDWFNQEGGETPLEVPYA
The experiment is described as follows: NBD-PC formation, TLC, bee venom PLA2 digestion, microsomes. Conditions: 1 µM NBD-C16-CoA, 10 µM 1-C16-GPC, pH 7.4, 30 °C; acyl acceptor. Type of experiment: biochemical.

The target of experiment [2] is T2, hACSL6-iso2 (human long-chain acyl-CoA synthetase 6) (Homo sapiens, UniProt Q9UKU0).
T2 construct: gene ACSL6; hexahistidine fusion, Ni-NTA partially purified, CHAPS lysis
T2 sequence (Q9UKU0 1-697): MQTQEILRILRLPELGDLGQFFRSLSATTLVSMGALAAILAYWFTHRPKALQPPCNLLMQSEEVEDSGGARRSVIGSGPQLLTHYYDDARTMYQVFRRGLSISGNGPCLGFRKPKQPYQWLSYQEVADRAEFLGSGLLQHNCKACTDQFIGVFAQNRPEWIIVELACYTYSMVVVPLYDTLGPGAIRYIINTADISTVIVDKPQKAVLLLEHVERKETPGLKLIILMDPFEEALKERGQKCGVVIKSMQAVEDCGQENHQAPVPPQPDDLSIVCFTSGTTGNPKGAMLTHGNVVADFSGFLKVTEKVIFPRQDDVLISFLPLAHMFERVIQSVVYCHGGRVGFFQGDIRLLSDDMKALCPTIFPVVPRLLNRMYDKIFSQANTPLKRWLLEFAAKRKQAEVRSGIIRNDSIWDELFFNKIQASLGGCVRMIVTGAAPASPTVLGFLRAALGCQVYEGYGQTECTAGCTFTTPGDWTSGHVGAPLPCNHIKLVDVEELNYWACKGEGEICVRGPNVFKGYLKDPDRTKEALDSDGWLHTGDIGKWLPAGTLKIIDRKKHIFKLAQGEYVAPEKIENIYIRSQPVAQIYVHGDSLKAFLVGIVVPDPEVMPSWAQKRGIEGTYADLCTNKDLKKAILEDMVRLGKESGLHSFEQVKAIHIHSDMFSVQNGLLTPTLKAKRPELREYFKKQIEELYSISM
The experiment is described as follows: acyl-CoA / acyl-AMP formation. It is filed as biochemical. Conditions: with fatty acid and CoASH.

The target in a further experiment is T3, human LPCAT1 (hLPCAT1) (Homo sapiens, UniProt Q8NF37).
T3 construct: expressed in E. coli BL21(DE3), membrane fraction; cloning reported previously
T3 sequence (Q8NF37 1-534): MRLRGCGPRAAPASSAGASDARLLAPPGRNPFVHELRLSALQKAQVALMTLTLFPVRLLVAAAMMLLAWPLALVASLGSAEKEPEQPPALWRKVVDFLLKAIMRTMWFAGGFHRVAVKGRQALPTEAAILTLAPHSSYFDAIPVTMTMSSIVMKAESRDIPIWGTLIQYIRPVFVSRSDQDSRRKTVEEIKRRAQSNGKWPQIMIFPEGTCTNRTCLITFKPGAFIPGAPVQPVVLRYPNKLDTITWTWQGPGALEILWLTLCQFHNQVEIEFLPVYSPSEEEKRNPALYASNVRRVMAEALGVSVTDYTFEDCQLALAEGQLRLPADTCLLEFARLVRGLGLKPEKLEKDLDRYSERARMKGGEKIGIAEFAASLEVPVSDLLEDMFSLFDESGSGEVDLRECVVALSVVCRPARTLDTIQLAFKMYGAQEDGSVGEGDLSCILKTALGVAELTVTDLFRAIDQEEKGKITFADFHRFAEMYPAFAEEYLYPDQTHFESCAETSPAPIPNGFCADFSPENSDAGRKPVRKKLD
Nature of the experiment: competition with NBD-C16-CoA acylation of 1-C16-GPC, TLC fluorescence, microsomes. To be noted: 0.5 µM NBD-C16-CoA, 20 µM 1-C16-GPC, 0.25-1.0 µM competitor, 30 °C; competing acyl donor. It is filed as biochemical.

Experiment [3] deals with T2, hACSL6-iso2 (human long-chain acyl-CoA synthetase 6). Nature of the experiment: competition with […]C18:1-CoA formation. It is filed as biochemical. To be noted: 1 µM [14C]C18:1-OH, ATP, CoASH, 0.15 µM enzyme, 30 °C; competing substrate.
Experiment [4] has as its target T4, CT699 (PsdD), PS-decarboxylase (Chlamydia trachomatis, UniProt P0CD79).
T4 construct: gene psd; full-length, pET28a, expressed in E. coli BL21(DE3), lysate
T4 sequence (P0CD79 1-259): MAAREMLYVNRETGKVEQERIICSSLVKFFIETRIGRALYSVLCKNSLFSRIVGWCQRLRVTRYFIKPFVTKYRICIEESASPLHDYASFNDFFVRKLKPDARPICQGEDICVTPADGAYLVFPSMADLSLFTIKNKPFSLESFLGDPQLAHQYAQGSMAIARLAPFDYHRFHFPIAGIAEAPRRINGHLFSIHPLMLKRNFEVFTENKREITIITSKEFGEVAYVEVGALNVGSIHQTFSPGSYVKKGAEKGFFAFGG
T4 sequence (P0CD79 260-301): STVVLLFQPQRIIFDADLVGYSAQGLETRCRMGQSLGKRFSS
Nature of the experiment: conversion of NBD-PS to NBD-PE, TLC fluorescence, E. coli lysate vs vector control. Type of experiment: cell-based. Conditions: 2 µM NBD-PS, Tris pH 7.4, 37 °C; labelled compound.

For experiment [5], the target named is T5, AasC (CT776), Chlamydia acyl-ACP synthase (Chlamydia trachomatis, UniProt O84781).
T5 construct: gene aas; full-length, pET28a, expressed in E. coli BL21(DE3), crude lysate
T5 sequence (O84781 1-537): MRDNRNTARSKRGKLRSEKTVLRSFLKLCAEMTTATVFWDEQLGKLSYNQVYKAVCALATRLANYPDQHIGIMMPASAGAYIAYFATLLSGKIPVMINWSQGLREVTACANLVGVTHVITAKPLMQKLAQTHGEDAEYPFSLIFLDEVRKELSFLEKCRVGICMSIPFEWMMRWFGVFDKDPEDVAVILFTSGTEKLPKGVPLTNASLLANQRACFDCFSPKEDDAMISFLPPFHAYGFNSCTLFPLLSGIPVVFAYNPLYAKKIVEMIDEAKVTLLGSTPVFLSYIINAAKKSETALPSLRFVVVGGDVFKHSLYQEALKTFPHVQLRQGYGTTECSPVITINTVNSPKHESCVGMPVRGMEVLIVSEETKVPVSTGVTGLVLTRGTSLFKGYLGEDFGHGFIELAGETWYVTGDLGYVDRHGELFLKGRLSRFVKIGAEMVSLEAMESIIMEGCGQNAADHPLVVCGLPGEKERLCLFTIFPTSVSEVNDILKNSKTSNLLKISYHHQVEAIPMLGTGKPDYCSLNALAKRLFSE
The experiment is described as follows: […]-phospholipid formation from […]-palmitate in E. coli lysate, TLC. Conditions: 5 µM [14C]C16-OH, 10 mM ATP, 20 mM MgCl2, pH 7.4, 30 °C; E. coli acyl carrier and acyltransferase in lysate. Type of experiment: biochemical.

Experiment [6] has as its target T5, AasC (CT776), Chlamydia acyl-ACP synthase. The experiment is described as above. Type of experiment: biochemical. Conditions: 5 µM [14C]C16-OH, 10 mM ATP, 20 mM MgCl2, pH 7.4, 30 °C; E. coli acyl carrier and acyltransferase in lysate. This is another data set of the same source.

Turning to `CCCCCCCCCCCCCCCC(=O)OC[C@@H](O)COP(=O)([O-])OCC[N+](C)(C)C` [1-C16-sn-glycerol-3-P-choline, 1-palmitoyl-2-hydroxy-sn-glycero-3-phosphocholine], the “NBD-PC formation, TLC, bee venom PLA2 digestion, microsomes” value in experiment [1] is recorded as “NBD-acyl group had been transferred by CT775 to the sn2 position of the 1-C16-GPC isomer”.

In the case of `Nc1ncnc2c1ncn2[C@@H]1O[C@H](COP(=O)(O)OP(=O)(O)OP(=O)(O)O)[C@@H](O)[C@H]1O` [ATP], the “acyl-CoA / acyl-AMP formation” value in experiment [2] was “In the presence of both ATP and CoASH, acyl-CoA is formed from fatty acids”.

Take `CCCCCCCC/C=C\CCCCCCCC(=O)SCCNC(=O)CCNC(=O)[C@H](O)C(C)(C)COP(=O)(O)OP(=O)(O)OC[C@H]1O[C@@H](n2cnc3c(N)ncnc32)[C@H](O)[C@@H]1OP(=O)(O)O` [C18:1-CoA]: the “% of activity without competitor” value at human LPCAT1 (hLPCAT1) was “MeC18-CoA was a stronger competitor than C18:1-CoA”.

For the compound `CC(C)CCCCCCCCCC(=O)O` [MeC12-OH], the “competition at 10 μM” value in experiment [3] is “The shorter chain MeC12-OH also competed but not as efficiently as MeC18-OH”.

Turning to `CC(C)CCCCCCCCCCCCCCCC(=O)SCCNC(=O)CCNC(=O)[C@H](O)C(C)(C)COP(=O)(O)OP(=O)(O)OC[C@H]1O[C@@H](n2cnc3c(N)ncnc32)[C@H](O)[C@@H]1OP(=O)(O)O` [MeC18-CoA], on human LPCAT1 (hLPCAT1), the “% of activity without competitor” value is “NBD-C16-CoA to 1-acyl-GPC by hLPCAT1 was strongly reduced in the presence of MeC18-CoA”.

In the case of `CC(C)CCCCCCCCCCCCCCCC(=O)O` [MeC18-OH], the “competition at 10 μM” value in experiment [3] is “this long-chain odd fatty acid was as good a substrate for hACSL6 as C18:1-OH”.

On to `CCCCCCCCCCCCCCCC(=O)OC[C@H](COP(=O)(O)OC[C@H](N)C(=O)O)OC(=O)CCCCCNc1ccc([N+](=O)[O-])c2nonc12` [NBD-PS, 1-palmitoyl-2-(6-[(7-nitro-2-1,3-benzoxadiazol-4-yl)amino]hexanoyl)-sn-glycero-3-phosphoserine], for which the “conversion of NBD-PS to NBD-PE, TLC fluorescence, E. coli lysate vs vector contr” value in experiment [4] was “CT699 was active and able to convert fluorescent NBD-PS into NBD-PE”.

As for `CN(CCOc1ccc(CC2SC(=O)NC2=O)cc1)c1ccccn1` (stereo not drawn) [rosiglitazone G], the “% inhibition at 100 μM” value in experiment [5] was “both drugs had a significant inhibitory effect on FA incorporation in the presence of the AasC”.

As for `CCC/C=C/C/C=C/C=C/C=N/NN=O` [triacsin C], the “% inhibition at 5 μM” value in experiment [6] was “both drugs had a significant inhibitory effect on FA incorporation in the presence of the AasC”.

The values above are taken from publication PMC5693948, “Phosphatidylserine decarboxylase CT699, lysophospholipid acyltransferase CT775, and acyl-ACP synthase CT776 provide membrane lipid diversity to Chlamydia trachomatis” (Scientific Reports, 2017).
